Data taken from patent US8686044B2, “Amide derivative, pest control agent containing the amide derivative, and use of the amide derivative” (Mitsui Chemicals Agro, Inc., priority 2008, dated 2014).

Key:
Type in all cases: in vivo
[1] = test system: Plutella xylostella; assay: Pesticidal test against Plutella xylostella (cabbage leaf dip); conditions: foliar, 144 h, concentration 1 ppm, 2-stage larvae, examined after 6 days, 25° C., read-out: pesticidal rate
Summary of the method: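 Second-stage larvae (5 per group, two replicates) were released onto air-dried cabbage leaf discs that had been immersed for 30 seconds in compound solution at a set concentration. Mortality was scored after 6 days at 25° C.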

[2] = test system: Ctenocephalides Felis; assay: Insecticidal test for Ctenocephalides felis, Test Example 3 (dry film in glass tube, 0.96 ml, Table A5); conditions: adults of Ctenocephalides felis, after 24 hours of exposure, in triplicate
Protocol: Insecticidal Test for Ctenocephalides felis
0.96 ml of a solution of acetone, the active ingredient, prepared to the prescribed concentration was added dropwise to a glass tube with a flat bottom (internal diameter: 3.6 cm, height: 12 cm), and the solvent was evaporated at room temperature to form a dry film of the agent on the bottom surface. About 10 adults of Ctenocephalides felis per glass tube were added, and they were contact-exposed to the test compound. After 24 hours of the exposure, the conditions of the adults were examined and classified into “alive” and “dead (including a moribund condition)” to determine the death rate was determined (in triplicate).
As the comparative compounds, the following Compounds (D) and (E) disclosed in WO2009/080203, and fipronil were used.

[3] = test system: Ctenocephalides Felis; assay: Insecticidal test for Ctenocephalides felis, Test Example 1 (dry film in glass tube, 0.5 ml, Table A4); conditions: adults; for pest or weed control at 0.1 µg/mL: Ctenocephalides felis, concentration 0.1 μg/ml, after 24 hours of the exposure, in triplicate, read-out: death rate
Protocol: Insecticidal Test for Ctenocephalides Felis
0.5 ml of a solution of acetone, the active ingredient, prepared to the prescribed concentration was added dropwise to a glass tube with a flat bottom (internal diameter: 2.6 cm, bottom area: 5.3 cm^2, height: 12 cm), and the solvent was evaporated at room temperature to form a dry film of the agent on the bottom surface. About 10 adults of Ctenocephalides Felis per glass tube were added, and the adults were contact-exposed to the test compound. After 24 hours of the exposure, the conditions of the adults were examined and classified into “alive” and “dead (including a moribund condition)” to determine the death rate (in triplicate).
As the comparative compounds, the following Compounds (A), (B), and (C) disclosed in WO2009/080203, and fipronil were used.

[4] = test system: Ctenocephalides Felis; assay: as above; conditions: adults

| SMILES | pest or weed control at 1 ppm [1] [%] | death rate ([2]; 0.03 μg/ml) [%] | death rate ([2]; 0.1 μg/ml) [%] | pest or weed control at 0.1 µg/mL [3] [%] | effect in the examination after 12 hours of the exposure [4] | speed of effect as compared with the fipronil ([3]; compared with fipronil) |
| --- | --- | --- | --- | --- | --- | --- |
| CN(C(=O)c1ccc(F)cc1)c1cccc(C(=O)Nc2c(I)cc(C(F)(C(F)(F)F)C(F)(F)F)cc2C(F)(F)F)c1F [7-1733, 2-fluoro-3-(4-fluoro-N-methylbenzamide)-N-(2-iodo-4-(perfluoropropan-2-yl)-6-(trifluoromethyl)phenyl)benzamide] | ≥ 70 | 21.1 | 91.6 | 100 |  |  |
| CN(C(=O)c1ccccc1)c1cccc(C(=O)Nc2c(Br)cc(C(F)(C(F)(F)F)C(F)(F)F)cc2C(F)(F)F)c1F [7-1574, N-(2-bromo-4-(perfluoropropan-2-yl)-6-(trifluoromethyl)phenyl)-2-fluoro-3-(N-methylbenzamide)benzamide] | ≥ 70 | 72.0 | 98.9 | 100 | effective | immediate effect |
